Activity calls are given as the source filed them. The calls are words filed in the database; no cut-off is given here.
How the values were obtained:
MIA PaCa-2 [1] = assay: Cytotoxicity against human MIAPaCa2 cells assessed as growth inhibition after 96 hrs by SRB assay; assay type: functional, cell-based; details: MIA PaCa-2, 96 h
786-0 = assay: Cytotoxicity against human 786-0 cells assessed as growth inhibition after 96 hrs by SRB assay; assay type: functional, cell-based; details: 786-0, 96 h
MIA PaCa-2 [2] = assay: Downregulation of RAD50 gene expression in human MIAPaCa2 cells at 20 to 160 nM after 24 hrs by qPCR analysis relative to solvent-treated control; assay type: functional, cell-based
MIA PaCa-2 [3] = assay: Downregulation of […] gene expression in human MIAPaCa2 cells at 20 to 80 nM after 24 hrs by qPCR analysis relative to solvent-treated control; assay type: functional
[4] = Cytotoxicity against human RCC4 cells assessed as growth inhibition after 96 hrs by SRB assay; assay type: functional, cell-based; details: RCC4, 96 h
MIA PaCa-2 [5] = assay: Upregulation of PPP1R15A gene expression in human MIAPaCa2 cells at cytotoxic concentration after 24 hrs by qPCR analysis; assay type: functional, cell-based
MIA PaCa-2 [6] = assay: Downregulation of PPM1D gene expression in human MIAPaCa2 cells at subcytotoxic concentration after 24 hrs by qPCR analysis; assay type: functional, cell-based
MIA PaCa-2 [7] = assay: Induction of senescence in human MIAPaCa2 cells at 3.3 to 6.6 nM after 7 days by beta-galactosidase assay relative to vehicle-treated control; assay type: functional
MIA PaCa-2 [8] = assay: Upregulation of DDIT3 gene expression in human MIAPaCa2 cells at cytotoxic concentration after 24 hrs by qPCR analysis; assay type: functional, cell-based
Homo sapiens = organism: Homo sapiens; assay: Stabilization of human telomeric G-quadruplex DNA sequence 5'-FAM-d(GGG[TTAGGG]3)-TAMRA-3' assessed as melting temperature at 1 uM by FRET assay
WI-38 = assay: Cytotoxicity against human WI38 cells assessed as growth inhibition after 96 hrs by SRB assay; assay type: cell-based; details: WI-38, 96 h
MIA PaCa-2 [9] = assay: Upregulation of CDKN1A gene expression in human MIAPaCa2 cells at cytotoxic concentration after 24 hrs by qPCR analysis; assay type: functional, cell-based
MIA PaCa-2 [10] = assay: Downregulation of NBN gene expression in human MIAPaCa2 cells at 20 to 160 nM after 24 hrs by qPCR analysis relative to solvent-treated control; assay type: functional, cell-based
MIA PaCa-2 [11] = assay: Upregulation of PPM1D gene expression in human MIAPaCa2 cells at cytotoxic concentration after 24 hrs by qPCR analysis; assay type: functional, cell-based
MIA PaCa-2 [12] = assay: Downregulation of GADD45G gene expression in human MIAPaCa2 cells at subcytotoxic concentration after 24 hrs by qPCR analysis; assay type: functional, cell-based
MIA PaCa-2 [13] = assay: Downregulation of SLX4 gene expression in human MIAPaCa2 cells at 20 to 80 nM after 24 hrs by qPCR analysis relative to solvent-treated control; assay type: functional
MIA PaCa-2 [14] = assay: Downregulation of DDIT3 gene expression in human MIAPaCa2 cells at subcytotoxic concentration after 24 hrs by qPCR analysis; assay type: functional, cell-based
MIA PaCa-2 [15] = assay: Downregulation of NTHL1 gene expression in human MIAPaCa2 cells at 160 nM after 24 hrs by qPCR analysis; assay type: functional, cell-based
MIA PaCa-2 [16] = assay: Downregulation of MPG gene expression in human MIAPaCa2 cells at 20 to 160 nM after 24 hrs by qPCR analysis relative to solvent-treated control; assay type: functional, cell-based
MIA PaCa-2 [17] = assay: Cytotoxicity against human MIAPaCa2 cells assessed as growth inhibition at 160 nM after 72 hrs by microscopic analysis; assay type: functional, cell-based
MIA PaCa-2 [18] = assay: Inhibition of telomerase activity in human MIAPaCa2 cells assessed as telomere elongation at 5 to 7.5 nM after 7 days by TRAP-LIG assay; assay type: cell-based
MIA PaCa-2 [19] = assay: Downregulation of PTGES3 gene expression in human MIAPaCa2 cells at 20 to 80 nM after 24 hrs by qPCR analysis relative to solvent-treated control; assay type: functional, cell-based
MIA PaCa-2 [20] = assay: Upregulation of MYC gene expression in human MIAPaCa2 cells at 20 to 80 nM by qPCR analysis relative to solvent-treated control; assay type: functional
MIA PaCa-2 [21] = assay: Downregulation of GADD45A gene expression in human MIAPaCa2 cells at subcytotoxic concentration after 24 hrs by qPCR analysis; assay type: functional, cell-based
MIA PaCa-2 [22] = assay: Downregulation of CDK7 gene expression in human MIAPaCa2 cells at 20 to 160 nM after 24 hrs by qPCR analysis relative to solvent-treated control; assay type: functional, cell-based
MIA PaCa-2 [23] = assay: Upregulation of GADD45G gene expression in human MIAPaCa2 cells at cytotoxic concentration after 24 hrs by qPCR analysis; assay type: functional, cell-based
MCF7 = assay: Cytotoxicity against human MCF7 cells assessed as growth inhibition after 96 hrs by SRB assay; assay type: functional, cell-based; details: MCF7, 96 h
MIA PaCa-2 [24] = assay: Downregulation of TP73 gene expression in human MIAPaCa2 cells at 160 nM after 24 hrs by qPCR analysis; assay type: functional, cell-based
MIA PaCa-2 [25] = assay: Upregulation of TP73 gene expression in human MIAPaCa2 cells at sublethal concentration after 24 hrs by qPCR analysis; assay type: functional, cell-based
MIA PaCa-2 [26] = assay: Upregulation of PPARG gene expression in human MIAPaCa2 cells at 20 to 80 nM after 24 hrs by qPCR analysis relative to solvent-treated control; assay type: functional
MIA PaCa-2 [27] = assay: Upregulation of GADD45A gene expression in human MIAPaCa2 cells at cytotoxic concentration after 24 hrs by qPCR analysis; assay type: functional, cell-based
MIA PaCa-2 [28] = assay: Downregulation of UNG gene expression in human MIAPaCa2 cells at 160 nM after 24 hrs by qPCR analysis; assay type: functional, cell-based
A549 = assay: Cytotoxicity against human A549 cells assessed as growth inhibition after 96 hrs by SRB assay; assay type: functional, cell-based; details: A549, 96 h
MIA PaCa-2 [29] = assay: Downregulation of HUS1 gene expression in human MIAPaCa2 cells at 20 to 160 nM after 24 hrs by qPCR analysis relative to solvent-treated control; assay type: functional, cell-based
MIA PaCa-2 [30] = assay: Upregulation of NHP2 gene expression in human MIAPaCa2 cells at 20 to 80 nM after 24 hrs by qPCR analysis relative to solvent-treated control; assay type: functional
MIA PaCa-2 [31] = assay: Inhibition of telomerase activity in human MIAPaCa2 cells assessed as telomere elongation up to 10 uM after 7 days by TRAP-LIG assay; assay type: cell-based
MIA PaCa-2 [32] = assay: Downregulation of PPP1R15A gene expression in human MIAPaCa2 cells at subcytotoxic concentration after 24 hrs by qPCR analysis; assay type: functional, cell-based
MIA PaCa-2 [33] = assay: Downregulation of CDKN1A gene expression in human MIAPaCa2 cells at subcytotoxic concentration after 24 hrs by qPCR analysis; assay type: functional, cell-based
MIA PaCa-2 [34] = assay: Induction of ATR/[…] gene expression in human MIAPaCa2 cells by qPCR analysis; assay type: functional, cell-based
unidentified = assay: Stabilization of HSP90b promoter sequence 5'-FAM-d(GGGCGGGCCAAAGGGAAGGGG)-TAMRA-3' (unknown origin) assessed as melting temperature at 1 uM by FRET assay
MIA PaCa-2 [35] = assay: Cytotoxicity against human MIAPaCa2 cells assessed as growth inhibition at 80 nM after 72 hrs by microscopic analysis; assay type: functional, cell-based
MIA PaCa-2 [36] = assay: Upregulation of UNG gene expression in human MIAPaCa2 cells at sublethal concentration after 24 hrs by qPCR analysis; assay type: functional, cell-based

ΔTm (Homo sapiens): 26.6 °C
ΔTm (unidentified): 28.6 °C
SMILES: CN1CCN(CCCNc2cc3c4c(c(NCCCN5CCN(C)CC5)cc5c4c2C(=O)N(CCCN2CCOCC2)C5=O)C(=O)N(CCCN2CCOCC2)C3=O)CC1
IC50 (MIA PaCa-2 [1]): 10 nM
IC50 (786-0): 320 nM
Activity (MIA PaCa-2 [2]): Active
fold change (FC) (MIA PaCa-2 [3]): >2
IC50 [4]: 560 nM
Activity (MIA PaCa-2 [5]): Active
Activity (MIA PaCa-2 [6]): inactive
Activity (MIA PaCa-2 [7]): 50%
Activity (MIA PaCa-2 [8]): Active
IC50 (WI-38): 230 nM
Activity (MIA PaCa-2 [9]): Active
Activity (MIA PaCa-2 [10]): Active
Activity (MIA PaCa-2 [11]): Active
Activity (MIA PaCa-2 [12]): inactive
fold change (FC) (MIA PaCa-2 [13]): >2
Activity (MIA PaCa-2 [14]): inactive
Activity (MIA PaCa-2 [15]): Active
Activity (MIA PaCa-2 [16]): Active
growth inhibition (GI) (MIA PaCa-2 [17]): Active
inhibition (MIA PaCa-2 [18]): inactive
Activity (MIA PaCa-2 [19]): Active
fold change (FC) (MIA PaCa-2 [20]): >2
Activity (MIA PaCa-2 [21]): inactive
Activity (MIA PaCa-2 [22]): Active
Activity (MIA PaCa-2 [23]): Active
IC50 (MCF7): 70 nM
Activity (MIA PaCa-2 [24]): Active
Activity (MIA PaCa-2 [25]): inactive
fold change (FC) (MIA PaCa-2 [26]): >2
Activity (MIA PaCa-2 [27]): Active
Activity (MIA PaCa-2 [28]): Active
IC50 (A549): < 10 nM
Activity (MIA PaCa-2 [29]): Active
fold change (FC) (MIA PaCa-2 [30]): >2
inhibition (MIA PaCa-2 [31]): inactive
Activity (MIA PaCa-2 [32]): inactive
Activity (MIA PaCa-2 [33]): inactive
Activity (MIA PaCa-2 [34]): inactive
growth inhibition (GI) (MIA PaCa-2 [35]): inactive
Activity (MIA PaCa-2 [36]): inactive

Source: ChEMBL document CHEMBL2331400, “Structure-based design and evaluation of naphthalene diimide G-quadruplex ligands as telomere targeting agents in pancreatic cancer cells” (J Med Chem, 2013)
